These results are taken from patent US8497278B2, “Imidazo[1,2-a]pyridine compounds” (priority 2008, dated 2013).

Experiment [1] relates to central benzodiazepine receptors. In words: Central benzodiazepine receptor binding (test of Speth et al.). The following applies: 1000 nM of the compound. The method in brief: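 Radioligand binding by the Speth et al. method. Specific binding is total minus nonspecific binding, the latter measured with excess unlabelled ligand. Compounds screened at 1.0E-09, 1.0E-07 and 1.0E-05 M in single determination; values given as percent inhibition at 1000 nM compound.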

The target of experiment [2] is T1, α1 subtype containing GABA-A receptors (Homo sapiens, UniProt P14867+P18507).
T1 construct: expressed in transfected cells; host or cells: Xenopus laevis oocytes, cRNA injected
T1 sequence (P14867 28-456): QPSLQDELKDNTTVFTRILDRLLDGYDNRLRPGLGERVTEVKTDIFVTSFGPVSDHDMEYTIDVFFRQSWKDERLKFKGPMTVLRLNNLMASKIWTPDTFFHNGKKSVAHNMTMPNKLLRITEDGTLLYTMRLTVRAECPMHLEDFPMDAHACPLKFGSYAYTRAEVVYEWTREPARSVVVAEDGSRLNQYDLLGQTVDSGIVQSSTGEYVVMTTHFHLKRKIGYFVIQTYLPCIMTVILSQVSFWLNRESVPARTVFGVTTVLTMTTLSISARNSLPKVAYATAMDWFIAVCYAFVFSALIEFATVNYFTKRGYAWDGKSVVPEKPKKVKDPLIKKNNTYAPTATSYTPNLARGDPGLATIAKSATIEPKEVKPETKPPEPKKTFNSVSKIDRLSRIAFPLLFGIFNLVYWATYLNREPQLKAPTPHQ
T1 sequence (P28472 26-473 partner): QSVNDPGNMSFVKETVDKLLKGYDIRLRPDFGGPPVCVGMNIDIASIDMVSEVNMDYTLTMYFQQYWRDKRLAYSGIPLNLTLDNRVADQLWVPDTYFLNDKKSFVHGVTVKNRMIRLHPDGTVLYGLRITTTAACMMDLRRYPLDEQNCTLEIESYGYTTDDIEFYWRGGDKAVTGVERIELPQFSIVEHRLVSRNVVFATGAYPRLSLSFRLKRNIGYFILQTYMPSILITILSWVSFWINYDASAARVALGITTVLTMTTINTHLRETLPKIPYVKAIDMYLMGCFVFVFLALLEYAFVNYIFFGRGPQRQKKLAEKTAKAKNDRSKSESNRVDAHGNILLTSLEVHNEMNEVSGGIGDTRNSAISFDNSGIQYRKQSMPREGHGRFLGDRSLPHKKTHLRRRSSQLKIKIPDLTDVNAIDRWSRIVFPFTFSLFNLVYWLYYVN
T1 sequence (P18507 40-475): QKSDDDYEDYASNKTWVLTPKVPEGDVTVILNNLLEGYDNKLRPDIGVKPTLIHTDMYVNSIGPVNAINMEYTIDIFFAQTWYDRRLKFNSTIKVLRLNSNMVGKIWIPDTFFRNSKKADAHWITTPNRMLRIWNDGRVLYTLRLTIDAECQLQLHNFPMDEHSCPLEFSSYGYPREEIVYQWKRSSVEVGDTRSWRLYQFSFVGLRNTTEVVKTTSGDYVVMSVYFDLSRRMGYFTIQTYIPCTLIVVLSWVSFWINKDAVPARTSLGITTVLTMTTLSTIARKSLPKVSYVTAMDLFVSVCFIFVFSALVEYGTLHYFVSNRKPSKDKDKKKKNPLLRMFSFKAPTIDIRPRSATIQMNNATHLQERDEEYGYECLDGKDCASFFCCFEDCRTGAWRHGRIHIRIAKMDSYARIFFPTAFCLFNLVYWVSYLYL
Kind of experiment: Two-electrode voltage clamp electrophysiology in Xenopus oocytes, potentiation of GABA EC20 response, α1. In kind it is cell-based. The settings on record: 100 nM compound; for activation at 0.1 µM: read-out: Percentage of potentiation alpha1. The protocol: (§1) Electrophysiology protocol: Oocytes were prepared from adult female Xenopus laevis frogs. cRNA encoding human α1, α2, α3, α5, β3 and γ2L GABAA receptor subunits was injected into the cytoplasm of stage 5 or 6 oocytes using the Robocyte Robot (Multi Channel Systems, Reutlingen, Germany). Two-electrode voltage clamp recordings were made in 96-well plates using the Robocyte Robot. Oocytes were impaled using recording heads with two glass electrodes containing 1.5 M potassium acetate and 0.5 M KCl and held at a membrane potential of −80 mV. Oocytes were continually perfused with a ND96 solution (96 mM NaCl, 2 mM KCl, 0.1 mM CaCl2, and 5 mM HEPES, pH 7.5) using a Gilson 222 XL Liquid Handler and Gilson Minipuls 3 Peristaltic Pump (Gilson Medical Electronics, Middleton, Wis., USA). The protocol consisted of three 20-s applications of GABA that gave a 20% of the maximum response (EC20: 60 μM) to allow for headroom to determine a baseline GABA response. To assess the potentiation, oocytes were first exposed to a single 1 μM chlordiazepoxide (CDP) as a potentiation standard. Oocytes with insufficient expression levels (currents below threshold) or insufficient γ2L subunit incorporation (judged by rapid desensitization upon GABA application, or by insufficient potentiation by CDP) were not included in analysis. Following this control application, a given oocyte was exposed to test compounds at 100 nM concentrations. Only one concentration of one compound was tested per oocyte. […] One skilled in the art will recognize that subtypes contribute to the effects of GABA-A modulators. Such that compounds favoring different subtypes can have different therapeutic effects. The magnitude of modulation, for example, partial modulators can influence the effects in vivo. “++” indicates a greater modulation that “+” so that at any given subtype “++” inducates a greater amount of modulation for that subtype. In some embodiments, modulation favoring alpha 1 relative to alpha2 and/or alpha 3 can have sedative hypnotic effects. In other embodiments, compounds with reduced selectivity of alpha 1 can express anxiolytic effects with less sedation. Compounds with selectivity for alpha 5 can have memory/cognition enhancing effects.

For experiment [3], the target named is T2, α2 subtype containing GABA-A receptors (Homo sapiens, UniProt P18507+P47869).
T2 construct: expressed in transfected cells; host or cells: Xenopus laevis oocytes, cRNA injected
T2 sequence (P47869 29-451): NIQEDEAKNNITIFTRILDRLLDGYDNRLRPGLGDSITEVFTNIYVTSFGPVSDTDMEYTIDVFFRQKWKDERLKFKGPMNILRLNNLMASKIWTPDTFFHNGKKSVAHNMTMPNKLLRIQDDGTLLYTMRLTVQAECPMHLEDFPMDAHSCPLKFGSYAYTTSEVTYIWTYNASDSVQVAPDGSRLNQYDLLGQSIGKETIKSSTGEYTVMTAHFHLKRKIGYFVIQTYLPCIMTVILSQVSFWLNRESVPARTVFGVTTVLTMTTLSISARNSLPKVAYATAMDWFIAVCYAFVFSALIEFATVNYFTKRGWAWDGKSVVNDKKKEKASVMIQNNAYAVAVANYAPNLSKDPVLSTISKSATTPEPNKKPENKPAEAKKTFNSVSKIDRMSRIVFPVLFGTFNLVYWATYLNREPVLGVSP
T2 sequence (P28472 26-473 partner): as the sequence (P28472 26-473 partner) above
T2 sequence (P18507 40-475): as the sequence (P18507 40-475) above
In words: Two-electrode voltage clamp electrophysiology in Xenopus oocytes, potentiation of GABA EC20 response, α2. The following applies: 100 nM compound; for activation at 0.1 µM: read-out: Percentage of potentiation alpha2. In kind it is cell-based. The protocol: as §1

For the molecule `Cc1ccc(-c2nc3ccc(C)cn3c2Cn2ccnc2C)cc1` [Compound 2, 6-Methyl-3-((2-methyl-1H-imidazol-1-yl)methyl)-2-p-tolylH-imidazo[1,2-a]pyridine], the “% Inhibition at 1000 nM for CBZD” value in experiment [1] was “++ (percentage of inhibition of central BZD site binding is greater than 80% in the presence of 1000 nM of the compound)”. Besides, the “Percentage of potentiation alpha1” value in experiment [2] is reported as “+ (percentage of potentiation is greater than or equal to 10% but less than 50% in the presence of 100 nM of the compound)”. The “Percentage of potentiation alpha2” value in experiment [3] is on record as “+ (percentage of potentiation is greater than or equal to 10% but less than 50% in the presence of 100 nM of the compound)”.

With `CCc1nccn1Cc1c(-c2ccc(C)cc2)nc2ccc(C)cn12` [Compound 4, 3-((2-Ethyl-1H-imidazol-1-yl)methyl)-6-methyl-2-p-tolylH-imidazo[1,2-a]pyridine], the “% Inhibition at 1000 nM for CBZD” value in experiment [1] was “++ (percentage of inhibition of central BZD site binding is greater than 80% in the presence of 1000 nM of the compound)”. In addition, the “Percentage of potentiation alpha1” value in experiment [2] is “+ (percentage of potentiation is greater than or equal to 10% but less than 50% in the presence of 100 nM of the compound)”. Moreover, in experiment [3], the “Percentage of potentiation alpha2” value was 0 (percentage of potentiation is between about 10% to about −10%).

Consider `Cc1ccc(-c2nc3ccc(C)cn3c2Cn2ccnn2)cc1` [Compound 6, 3-((1H-1,2,3-triazol-1-yl)methyl)-6-methyl-2-p-tolylH-imidazo[1,2-a]pyridine], for which the “% Inhibition at 1000 nM for CBZD” value in experiment [1] is “++ (percentage of inhibition of central BZD site binding is greater than 80% in the presence of 1000 nM of the compound)”. The “Percentage of potentiation alpha1” value in experiment [2] is listed as “+ (percentage of potentiation is greater than or equal to 10% but less than 50% in the presence of 100 nM of the compound)”. Moreover, the “Percentage of potentiation alpha2” value in experiment [3] is listed as “+ (percentage of potentiation is greater than or equal to 10% but less than 50% in the presence of 100 nM of the compound)”.

As to `Cc1ccc(-c2nc3ccc(C)cn3c2Cn2cncn2)cc1` [Compound 7, 3-((1H-1,2,4-triazol-1-yl)methyl)-6-methyl-2-p-tolylH-imidazo[1,2-a]pyridine], the “% Inhibition at 1000 nM for CBZD” value in experiment [1] is listed as “++ (percentage of inhibition of central BZD site binding is greater than 80% in the presence of 1000 nM of the compound)”. For the same molecule, in experiment [2], the “Percentage of potentiation alpha1” value was “+ (percentage of potentiation is greater than or equal to 10% but less than 50% in the presence of 100 nM of the compound)”. Also, the “Percentage of potentiation alpha2” value in experiment [3] is “+ (percentage of potentiation is greater than or equal to 10% but less than 50% in the presence of 100 nM of the compound)”.

Regarding `COC(=O)c1ncn(Cc2c(-c3ccc(Cl)cc3)nc3ccccn23)n1` [Compound 25, 1-[2-(4-Chloro-phenyl)-imidazo[1,2-a]pyridin-3-ylmethyl]-1H-[1,2,4]triazole-3-carboxylic acid methyl ester], the results for the activation at 0.1 µM in experiment [2] and in experiment [3] were 10 to 50% and at least 50%, respectively.

In the case of `Clc1ccc(-c2nc3ccccn3c2Cn2nnc3ccccc32)cc1` [Compound 42, 1-((2-(4-chlorophenyl)H-imidazo[1,2-a]pyridin-3-yl)methyl)-1H-benzo[d][1,2,3]triazole], in experiment [2], the “Percentage of potentiation alpha1” value was “+ (percentage of potentiation is greater than or equal to 10% but less than 50% in the presence of 100 nM of the compound)”. In experiment [3], the “Percentage of potentiation alpha2” value was “+ (percentage of potentiation is greater than or equal to 10% but less than 50% in the presence of 100 nM of the compound)”.

For the molecule `CNC(=O)c1ncn(Cc2c(-c3ccc(Cl)cc3)nc3ccccn23)n1` [Compound 73, 1-((2-(4-chlorophenyl)imidazo[1,2-a]pyridin-3-yl)methyl)-N-methyl-1H-1,2,4-triazole-3-carboxamide], the activation at 0.1 µM in experiment [2] and in experiment [3] was 10 to 50% in each case.

With `Nc1ccn(Cc2c(-c3ccc(Cl)cc3)nc3ccccn23)c(=O)n1` [Compound 106, 4-amino-1-((2-(4-chlorophenyl)imidazo[1,2-a]pyridin-3-yl)methyl)pyrimidin-2(1H)-one], the activation at 0.1 µM in experiment [2] and in experiment [3] was 10 to 50% each time.

Turning to `CN(C)c1ccn(Cc2c(-c3ccc(Cl)cc3)nc3ccccn23)c(=O)n1` [Compound 135, 1-((2-(4-chlorophenyl)imidazo[1,2-a]pyridin-3-yl)methyl)-4-(dimethylamino)pyrimidin-2(1H)-one], the “% Inhibition at 1000 nM for CBZD” value in experiment [1] is listed as “++ (percentage of inhibition of central BZD site binding is greater than 80% in the presence of 1000 nM of the compound)”. In experiment [3], the activation at 0.1 µM is at least 50%.

Regarding `Cc1ccc(-c2nc3ccc(C)cn3c2CNc2nccnn2)cc1` [Compound 145, (6-Methyl-2-p-tolyl-imidazo[1,2-a]pyridin-3-ylmethyl)-[1,2,4]triazin-3-yl-amine], the activation at 0.1 µM in experiment [2] was at least 50%; in experiment [3] it was 10 to 50%.

As for `NNC(=O)c1nc(Cc2c(-c3ccc(Cl)cc3)nc3ccccn23)no1` [Compound 215, 3-((2-(4-chlorophenyl)imidazo[1,2-a]pyridin-3-yl)methyl)-1,2,4-oxadiazole-5-carbohydrazide], the values for the activation at 0.1 µM in experiment [2] and in experiment [3] were -10 to 10% and 10 to 50%, respectively.

In the case of `NC(=O)c1nc(Cc2c(-c3ccc(Cl)cc3)nc3ccc(F)cn23)no1` [Compound 217, 3-((2-(4-chlorophenyl)-6-fluoroimidazo[1,2-a]pyridin-3-yl)methyl)-1,2,4-oxadiazole-5-carboxamide], the activation at 0.1 µM in experiment [2] is 10 to 50%; in experiment [3], at least 50%.

For the molecule `CNC(=O)c1nc(Cc2c(-c3ccc(F)cc3)nc3ccc(Cl)cn23)no1` [Compound 218, 3-((2-(4-fluorophenyl)-6-chloroimidazo[1,2-a]pyridin-3-yl)methyl)-1,2,4-oxadiazole-5-N-methyl-carboxamide], the “Percentage of potentiation alpha1” value in experiment [2] is “+ (percentage of potentiation is greater than or equal to 10% but less than 50% in the presence of 100 nM of the compound)”. Also, the “Percentage of potentiation alpha2” value in experiment [3] is “++ (percentage of potentiation is greater than or equal to 50% in the presence of 100 nM of the compound)”.

As to `CNC(=O)c1nc(Cc2c(-c3ccc(F)cc3)nc3ccc(F)cn23)no1` [Compound 221, 3-((6-fluoro-2-(4-fluorophenyl)imidazo[1,2-a]pyridin-3-yl)methyl)-N-methyl-1,2,4-oxadiazole-5-carboxamide], the activation at 0.1 µM in experiment [2] was -10 to 10%; in experiment [3], 10 to 50%.

In the case of `O=C(NO)c1nc(Cc2c(-c3ccc(Cl)cc3)nc3ccc(F)cn23)no1` [Compound 222, 3-((2-(4-chlorophenyl)-6-fluoroimidazo[1,2-a]pyridin-3-yl)methyl)-N-hydroxy-1,2,4-oxadiazole-5-carboxamide], the activation at 0.1 µM in experiment [2] was -10 to 10%; in experiment [3] it was at least 50%.

As for `O=C(NO)c1nc(Cc2c(-c3ccc(F)cc3)nc3ccc(F)cn23)no1` [Compound 223, 3-((2-(4-fluorophenyl)-6-fluoroimidazo[1,2-a]pyridin-3-yl)methyl)-N-hydroxy-1,2,4-oxadiazole-5-carboxamide], the activation at 0.1 µM is at most -10% in experiment [2] and 10 to 50% in experiment [3].

For the molecule `CONC(=O)c1nc(Cc2c(-c3ccc(F)cc3)nc3ccc(F)cn23)no1` [Compound 224, 3-((2-(4-fluorophenyl)-6-fluoroimidazo[1,2-a]pyridin-3-yl)methyl)-N-methyoxy-1,2,4-oxadiazole-5-carboxamide], the “Percentage of potentiation alpha1” value in experiment [2] is on record as 0 (percentage of potentiation is between about 10% to about −10%). Moreover, the “Percentage of potentiation alpha2” value in experiment [3] was “+ (percentage of potentiation is greater than or equal to 10% but less than 50% in the presence of 100 nM of the compound)”.

Consider `CN(O)C(=O)c1nc(Cc2c(-c3ccc(F)cc3)nc3ccc(F)cn23)no1` [Compound 225, 3-((6-fluoro-2-(4-fluorophenyl)imidazo-[1,2-a]pyridin-3-yl)methyl)-N-hydroxy-N-methyl-1,2,4-oxadiazole-5-carboxamide], for which the figures for the activation at 0.1 µM in experiment [2] and in experiment [3] were at most -10% and 10 to 50%, respectively.
